Results as given in article PMC10907298 (Nature chemical biology, 2023).
Values joined by “and” are separate entries in the source; they are usually repeats but may differ in a detail not shown here. Identical values can stand only once.

Legend:
[1] = molecular target: SYNE2 Nesprin-2 (Homo sapiens, UniProt Q8WXH0); assay: photoaffinity labeling and competition chemoproteomics in THP-1 cells; type: binding
[2] = molecular target: STING(TMEM173) (Homo sapiens, UniProt Q86WV6, G230A/R293Q/R71H); assay: as above; type: binding
Chain of STING(TMEM173) (Q86WV6 whole entry R71H/G230A/R293Q): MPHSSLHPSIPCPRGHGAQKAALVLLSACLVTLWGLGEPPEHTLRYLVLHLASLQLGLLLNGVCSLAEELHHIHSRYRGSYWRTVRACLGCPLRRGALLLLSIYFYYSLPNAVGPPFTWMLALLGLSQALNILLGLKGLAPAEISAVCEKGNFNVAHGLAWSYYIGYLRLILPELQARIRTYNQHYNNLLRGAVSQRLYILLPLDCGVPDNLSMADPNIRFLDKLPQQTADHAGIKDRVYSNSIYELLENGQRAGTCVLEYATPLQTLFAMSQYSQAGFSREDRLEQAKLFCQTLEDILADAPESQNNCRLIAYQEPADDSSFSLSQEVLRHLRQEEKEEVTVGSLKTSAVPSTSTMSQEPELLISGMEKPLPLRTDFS

[3] = molecular target: human STING (Homo sapiens, UniProt Q86WV6, G230A/R293Q/R71H); assay: THP1-Dual ISRE-Luc reporter gene assay (primary screen and dose response); settings: for THP1-Dual reporter activity: single replicates (n=2); for AC50: THP1-Dual ISRE-Luc Assay
Chain of human STING (Q86WV6 whole entry R71H/G230A/R293Q, the tested form may be a part): as the sequence (Q86WV6 whole entry R71H/G230A/R293Q) above

[4] = molecular target: TXNDC12 Thioredoxin domain-containing protein 12 (Homo sapiens, UniProt O95881); assay: photoaffinity labeling and competition chemoproteomics in THP-1 cells; type: binding
Chain of TXNDC12 Thioredoxin domain-containing protein 12 (O95881 27-172): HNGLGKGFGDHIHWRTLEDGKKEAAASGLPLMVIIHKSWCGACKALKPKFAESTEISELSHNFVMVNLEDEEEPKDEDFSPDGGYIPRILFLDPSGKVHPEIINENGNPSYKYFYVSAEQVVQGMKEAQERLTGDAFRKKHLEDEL

[5] = molecular target: RABL6 Rab-like protein 6 (Homo sapiens, UniProt Q3YEC7); assay: as above; type: binding
Chain of RABL6 Rab-like protein 6 (Q3YEC7 whole entry): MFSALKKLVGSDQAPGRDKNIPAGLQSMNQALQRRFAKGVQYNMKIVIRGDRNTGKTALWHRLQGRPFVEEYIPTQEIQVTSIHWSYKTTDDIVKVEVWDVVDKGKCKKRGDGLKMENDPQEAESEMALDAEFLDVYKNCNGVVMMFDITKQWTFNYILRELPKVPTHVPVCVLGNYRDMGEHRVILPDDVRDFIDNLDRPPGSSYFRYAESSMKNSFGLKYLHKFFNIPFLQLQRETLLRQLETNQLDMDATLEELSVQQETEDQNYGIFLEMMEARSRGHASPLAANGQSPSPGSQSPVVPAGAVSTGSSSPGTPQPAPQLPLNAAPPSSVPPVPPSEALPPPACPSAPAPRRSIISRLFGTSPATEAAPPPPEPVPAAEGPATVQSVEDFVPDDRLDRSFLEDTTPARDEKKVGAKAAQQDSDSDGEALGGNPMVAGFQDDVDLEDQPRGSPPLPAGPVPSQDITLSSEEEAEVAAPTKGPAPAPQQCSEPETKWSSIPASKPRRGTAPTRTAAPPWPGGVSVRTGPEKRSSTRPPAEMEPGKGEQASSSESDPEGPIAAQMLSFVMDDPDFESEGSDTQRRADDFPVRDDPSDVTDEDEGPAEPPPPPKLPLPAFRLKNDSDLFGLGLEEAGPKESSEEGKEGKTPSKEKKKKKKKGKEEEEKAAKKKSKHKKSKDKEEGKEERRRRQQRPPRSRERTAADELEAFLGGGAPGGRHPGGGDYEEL

[6] = molecular target: SLC25A13 Calcium-binding mitochondrial carrier protein Aralar2 (Homo sapiens, UniProt Q9UJS0); assay: as above
Chain of SLC25A13 Calcium-binding mitochondrial carrier protein Aralar2 (Q9UJS0 whole entry): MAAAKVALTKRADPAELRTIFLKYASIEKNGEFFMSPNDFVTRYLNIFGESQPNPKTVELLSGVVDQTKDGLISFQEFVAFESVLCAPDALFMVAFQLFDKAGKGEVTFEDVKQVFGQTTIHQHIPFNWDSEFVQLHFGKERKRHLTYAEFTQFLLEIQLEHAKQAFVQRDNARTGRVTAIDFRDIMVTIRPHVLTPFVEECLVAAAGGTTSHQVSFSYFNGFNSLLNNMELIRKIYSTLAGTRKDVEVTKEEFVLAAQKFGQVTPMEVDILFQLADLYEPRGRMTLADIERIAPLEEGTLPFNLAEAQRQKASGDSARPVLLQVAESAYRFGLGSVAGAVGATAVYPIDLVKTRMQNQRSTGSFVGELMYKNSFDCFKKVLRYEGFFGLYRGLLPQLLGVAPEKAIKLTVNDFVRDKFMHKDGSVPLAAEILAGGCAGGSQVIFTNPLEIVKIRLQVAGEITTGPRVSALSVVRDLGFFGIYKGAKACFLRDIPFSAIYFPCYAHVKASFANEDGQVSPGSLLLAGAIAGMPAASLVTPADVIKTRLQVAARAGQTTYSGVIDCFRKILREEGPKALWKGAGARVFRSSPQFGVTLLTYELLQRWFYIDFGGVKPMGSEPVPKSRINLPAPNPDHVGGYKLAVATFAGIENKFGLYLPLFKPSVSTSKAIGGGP

[7] = tested on: BMDM, WT mSTING; assay: IP10 induction in bone marrow-derived macrophages; type: cell-based, mouse; settings: 50μM, n=1
[8] = tested on: BMDM, mSTING Indel/Indel; assay: IP10 induction in bone marrow-derived macrophages; type: cell-based, mouse; settings: 50μM, n=1
[9] = tested on: BMDM, human STING knock-in; assay: IP10 induction in bone marrow-derived macrophages; type: cell-based, mouse; settings: 50μM, n=1
[10] = molecular target: hSTING(1–153)–mSTING(153–378) chimera (Homo sapiens, UniProt Q86WV6, A215V/A300E/A302V/A313V/A318T/A350V/D237N/D297E/D320G/E174G/E362R/E369D/G230I/G344N/H185L/H232R/I244V/K224M/K347M/K370Q/L189M/L202F/L222R/L247I/L333I/L346P/M214V/M357L/Q196R/Q276K/Q306R/R191S/R253P/S275A/S321N/S345A/S353P/T181M/T229N/T256V/T354P/T356V/V194G/V258I/V343M/V351A/Y182F/Y186H/Y274D); assay: ISRE reporter assay with STING co-transfection in HEK293T cells; type: cell-based, human/mouse; settings: for ISRE reporter activity, mean: h(1-153)/m(153-378)STING, Figure S1f
Chain of hSTING(1–153)–mSTING(153–378) chimera (Q86WV6 with tags, fused parts or gaps with the stated changes): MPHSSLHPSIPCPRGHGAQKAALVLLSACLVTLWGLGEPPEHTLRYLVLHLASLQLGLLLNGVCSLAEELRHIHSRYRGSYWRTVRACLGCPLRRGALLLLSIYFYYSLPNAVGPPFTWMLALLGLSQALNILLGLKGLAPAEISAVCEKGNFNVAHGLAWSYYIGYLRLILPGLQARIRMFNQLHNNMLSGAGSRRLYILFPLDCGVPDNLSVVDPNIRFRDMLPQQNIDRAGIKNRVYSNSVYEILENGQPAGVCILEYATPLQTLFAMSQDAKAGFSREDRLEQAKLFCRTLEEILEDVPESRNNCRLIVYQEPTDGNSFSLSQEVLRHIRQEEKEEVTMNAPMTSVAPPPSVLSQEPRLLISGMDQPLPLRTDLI

[11] = molecular target: human STING (WT) (Homo sapiens, UniProt Q86WV6); assay: as above; type: cell-based; settings: hSTING, Figure S1f
Chain of human STING (WT) (Q86WV6 whole entry): as the sequence (Q86WV6 whole entry R71H/G230A/R293Q) above, with H71R, A230G, Q293R counted along it

C#CCCC1(CCC(=O)NCCCS(=O)(=O)NC(=O)c2ccc(NCc3ccc(C4(C(C)(C)C)OCC(C)(C)CO4)cc3)c(OC)c2)N=N1 [NVS-STG4] was tested, and the “Abundance Ratio (log2): (DMSO) / (NJC652)” value [1] was 0.26, the “enrichment of STING(TMEM173) over no probe control” value ([2]; 1 μM probe, pull-down) was “over 2 fold” and the “Abundance Ratio (log2): (DMSO) / (NJC652)” value ([2]; TMEM173) was -1.82. For the same compound, the THP1-Dual reporter activity ([3]; 97.7 nM) was -53.887 and -41.218, the THP1-Dual reporter activity ([3]; 195 nM) was -52.59 and -42.841 and the THP1-Dual reporter activity ([3]; 391 nM) was -38.43 and -29.964. The THP1-Dual reporter activity ([3]; 781 nM) was -39.736 and -25.431, the THP1-Dual reporter activity ([3]; 1563 nM) was -32.277 and -48.463 and the THP1-Dual reporter activity ([3]; 3125 nM) was -20.873 and -28.245. The THP1-Dual reporter activity ([3]; 6250 nM) was 1623.13 and 1111.27, the THP1-Dual reporter activity ([3]; 12500 nM) was 4114.59 and 3953.84 and the THP1-Dual reporter activity ([3]; 25000 nM) was 2243.38 and 2653.78. For the same compound, the AC50 [3] was 6.9 µM, the “Abundance Ratio (log2): (DMSO) / (NJC652)” value [4] was -0.18 and the “Abundance Ratio (log2): (DMSO) / (NJC652)” value [5] was 0.01. For the same compound, the “Abundance Ratio (log2): (DMSO) / (NJC652)” value [6] was -0.21.

For CNc1ccccc1CS(=O)(=O)NC(=O)c1ccc(NCc2ccc(C3(C(C)(C)C)OCC(C)(C)CO3)cc2)c(OC)c1 [NVS-STG3], the “competition of NVS-STG4 labeling in words” value ([2]; 20 μM competitor, 1 μM NVS-STG4) was “competed”, the THP1-Dual reporter activity ([3]; 97.7 nM) was -1.082 and 21.604 and the THP1-Dual reporter activity ([3]; 195 nM) was -3.144 and -12.05. The THP1-Dual reporter activity ([3]; 391 nM) was -15.339 and 25.944, the THP1-Dual reporter activity ([3]; 781 nM) was 62.36 and 63.63 and the THP1-Dual reporter activity ([3]; 1563 nM) was 1502.2 and 1735.82. For the same compound, the THP1-Dual reporter activity ([3]; 3125 nM) was 6139.8 and 5609.9, the THP1-Dual reporter activity ([3]; 6250 nM) was 8825.5 and 7956 and the THP1-Dual reporter activity ([3]; 12500 nM) was 8733.31 and 7877.19. For the same compound, the AC50 [3] was 2.7 µM.

Nc1nc2c(ncn2[C@@H]2O[C@@H]3COP(=O)(O)O[C@H]4[C@@H](O)[C@H](n5cnc6c(N)ncnc65)O[C@@H]4COP(=O)(O)O[C@@H]2[C@@H]3O)c(=O)[nH]1 [cGAMP, 2’,3’-cGMP-AMP, reference compound] was tested, and the IP10 [7] was 3440.25 pg/mL, the IP10 [8] was 0 pg/mL and the IP10 ([9]; BMDM hSTING+/+) was 2945 pg/mL. For the same compound, the IP10 ([9]; BMDM hSTING+/indel) was 1331.5 pg/mL.

In the case of Cc1ccc2c(=O)c3cccc(CC(=O)O)c3oc2c1C [DMXAA, 5,6-dimethylxanthenone-4-acetic acid, reference compound], the “ISRE reporter activity, mean” value ([10]; Log[μM] 0) is reported as 0.7, the “ISRE reporter activity, mean” value ([10]; Log[μM] 0.3) is reported as 0.7 and the “ISRE reporter activity, mean” value ([10]; Log[μM] 0.6) is reported as 0.7. For the same compound, the “ISRE reporter activity, mean” value ([10]; Log[μM] 0.9) was 0.9, the “ISRE reporter activity, mean” value ([10]; Log[μM] 1.2) was 9.4 and the “ISRE reporter activity, mean” value ([10]; Log[μM] 1.5) was 82.5. The “ISRE reporter activity, mean” value ([10]; Log[μM] 1.8) was 101.1, the “ISRE reporter activity, mean” value ([10]; Log[μM] 2.1) was 106.7 and the “ISRE reporter activity, mean” value ([10]; Log[μM] 2.4) was 109.5. The “STING activation in words” value ([10]; hSTING TMD–mSTING LBD chimera) was “responded fully”, the “ISRE reporter activity, mean” value ([11]; Log[μM] 0) was 1.3 and the “ISRE reporter activity, mean” value ([11]; Log[μM] 0.3) was 1.4. The “ISRE reporter activity, mean” value ([11]; Log[μM] 0.6) was 1.2, the “ISRE reporter activity, mean” value ([11]; Log[μM] 0.9) was 1.3 and the “ISRE reporter activity, mean” value ([11]; Log[μM] 1.2) was 1. For the same compound, the “ISRE reporter activity, mean” value ([11]; Log[μM] 1.5) was 1.6, the “ISRE reporter activity, mean” value ([11]; Log[μM] 1.8) was 1.2 and the “ISRE reporter activity, mean” value ([11]; Log[μM] 2.1) was 1.4. The “ISRE reporter activity, mean” value ([11]; Log[μM] 2.4) was 1.5 and the “ISRE reporter activity, mean” value ([11]; Log[μM] 2.7) was 1.9.
